Measured values taken from patent US5087620A, “Controlled dermal penetration enhancement using imidazoles” (Bristol-Myers Squibb Co., priority 1990, dated 1992).

Assays:
forearms of humans = details: general rule; depends on vehicle and concentration; cited from earlier work
volar forearms [1] = experiment: Vasoconstriction assay of Examples 3, 4 and 5 versus DIPROSONE and KENALOG (Example 6); format: in vivo, human
Experimental: (§1) Equal amounts of each coded test medication (approximately 10 mg) were applied to 2cm^2 sites on the volar forearms and left in place, unoccluded, for 8 hours. Vasoconstriction was assessed by grading the degree of blanching on a 4-point scale (none, mild, moderate, marked) at each test site at 4, 8, 10, 12 and 24 hours after application. Statistical analysis of the area under the curve (AUC) was conducted by ranking the AUC scores within each subject and performing an analysis of variance on the ranks (Friedman Test).

[2] = In vitro skin penetration study, excised human skin, Franz diffusion cells (Example 1A-1C); format: in vitro ADME
Experimental: Normal excised human skin samples obtained from breast reduction were used. Appropriate size specimens were frozen on the microtome with carbon dioxide and sectioned to a layer around 200 micrometers thick and stored in normal saline at 5° C. The skin sections were mounted on 9 mm inside diameter flat-top Franz diffusion cells. The diffusional cross-sectional area of the skin was 0.636 cm^2. A 50 microliter sample of a test formulation was placed on the skin in the donor compartment and the receiver compartment was filled with about 5 ml of normal saline (with pH adjusted to 4 with citric acid) and was well stirred. Water at 37.4° C. was circulated throughout the water jacket of the diffusion cell. A 100 microliter sample was withdrawn from the receiver compartment at appropriate intervals and analyzed for drug content by HPLC. The receptor fluid was replenished with normal saline after each withdrawal. All the receptor fluid and replenished fluid were thoroughly degassed before use.

volar forearms [3] = experiment: Vasoconstriction (skin blanching) assay, double-blind within subject study (Example 2); format: in vivo, human; details: inclusion of dermal penetration controlling amount of SNO3, PG and IPM
Experimental: as §1

C[C@H]1C[C@H]2[C@@H]3CCC4=CC(=O)C=C[C@]4(C)[C@@]3(F)[C@@H](O)C[C@]2(C)[C@@]1(O)C(=O)CCl [clobetasol]
topical potency class (vasoconstriction assay) (forearms of humans): ultra high potency

C[C@H]1C[C@@H]2[C@H]([C@@H](O)C[C@@]3(C)[C@H]2CC[C@]3(O)C(=O)CO)[C@@]2(C)C=CC(=O)C=C12 [methylprednisolone]
topical potency class (vasoconstriction assay) (forearms of humans): low potency

CC1(C)O[C@@H]2C[C@H]3[C@@H]4CCC5=CC(=O)C=C[C@]5(C)[C@@]4(F)[C@@H](O)C[C@]3(C)[C@]2(C(=O)CO)O1 [TACA, triamcinolone acetonide]
potency class of TACA with SNO3, PG and IPM (volar forearms [1]; inclusion of SNO3, PG and IPM): high potency | TACA concentration needed for high potency in comparison to Kenalog cream (0.1% TACA) (volar forearms [1]; with SNO3, PG and IPM): three fold lower | topical potency class (vasoconstriction assay) (forearms of humans): mid-potency | penetration through the entire skin thickness (extent) [2]: only a small amount | potency class of TACA with SNO3, PG and IPM (volar forearms [3]): high potency steroid

C[C@H]1C[C@H]2[C@@H]3CCC4=CC(=O)C=C[C@]4(C)[C@@]3(F)[C@@H](O)C[C@]2(C)[C@@]1(O)C(=O)CO [betamethasone]
topical potency class (vasoconstriction assay) (forearms of humans): high potency

C[C@]12C=CC(=O)C=C1CC[C@@H]1[C@@H]2[C@@H](O)C[C@@]2(C)[C@H]1CC[C@]2(O)C(=O)CO [prednisolone]
topical potency class (vasoconstriction assay) (forearms of humans): low potency

C[C@]12CCC(=O)C=C1CC[C@@H]1[C@@H]2[C@@H](O)C[C@@]2(C)[C@H]1CC[C@]2(O)C(=O)CO [hydrocortisone]
topical potency class (vasoconstriction assay) (forearms of humans): low potency
